The subject of this test is BDF1 mice, L1210 leukemia sc, survival T/C. Description: NCI In Vivo Anticancer Drug Screen. Data for tumor model L1210 Leukemia (subcutaneous) in B6D2F1 (BDF1) mice. The settings on record: higher = longer survival. Summed up:
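Mice carrying transplanted tumors received test compounds, and survival or tumor size was measured. Values are the treated-group measurement (T) divided by that of the vehicle-treated control group (C).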

[1] abbreviates: endpoint: median survival time, dose: 0.39 mg/kg/injection, schedule: Q01DX Z (sc), vehicle: methylcellulose (MC).
[2] abbreviates: endpoint: median survival time, dose: 0.65 mg/kg/injection, schedule: Q01DX Z (sc), vehicle: methylcellulose (MC).
The mark [3] stands for this setting: endpoint: median survival time, dose: 1.08 mg/kg/injection, schedule: Q01DX Z (sc), vehicle: methylcellulose (MC).
The mark [4] stands for this setting: endpoint: median survival time, dose: 1.8 mg/kg/injection, schedule: Q01DX Z (sc), vehicle: methylcellulose (MC).
Setting [5] is: endpoint: median survival time, dose: 3.0 mg/kg/injection, schedule: Q01DX Z (sc), vehicle: methylcellulose (MC).
Where [6] appears, read: endpoint: median survival time, dose: 23.0 mg/kg/injection, schedule: Q01DX Z (sc), vehicle: saline.
Setting [7] is: endpoint: median survival time, dose: 23.0 mg/kg/injection, schedule: Q01DX Z (sc), vehicle: water.

Where “and” joins values, the source holds several entries; their conditions need not be identical. Equal entries are not always repeated. Inconclusive results and toxic doses are left out.

`NC(=O)N(CCCl)N=O`: the T/C under setting [1] is 123 % of control; the T/C under setting [2] was 123 % of control; the T/C (endpoint: median survival time, dose: 0.65 mg/kg/injection, schedule: Q01DX Z (sc), vehicle: saline) was 168 % of control; the T/C under setting [3] is 247 % of control; the T/C (endpoint: median survival time, dose: 1.08 mg/kg/injection, schedule: Q01DX Z (sc), vehicle: saline) was 273 % of control; the T/C under setting [4] was 300 % of control. Further, the T/C is, setting by setting: (endpoint: median survival time, dose: 1.8 mg/kg/injection, schedule: Q01DX Z (sc), vehicle: saline) 420 % of control and 526 % of control; under setting [5], 309 % of control; (endpoint: median survival time, dose: 3.0 mg/kg/injection, schedule: Q01DX Z (sc), vehicle: saline) 365 % of control and 463 % of control; (endpoint: median survival time, dose: 5.0 mg/kg/injection, schedule: Q01DX001 (sc), vehicle: saline) 157 % of control; (endpoint: median survival time, dose: 5.0 mg/kg/injection, schedule: Q01DX Z (sc), vehicle: saline) 270 % of control and 310 % of control; (endpoint: median survival time, dose: 5.0 mg/kg/injection, schedule: Q07DX Z (sc), vehicle: saline) 200 % of control. The T/C (endpoint: median survival time, dose: 8.4 mg/kg/injection, schedule: Q01DX001 (sc), vehicle: saline) is 178 % of control; the T/C (endpoint: median survival time, dose: 8.4 mg/kg/injection, schedule: Q01DX Z (sc), vehicle: saline) was 170 % of control; the T/C (endpoint: median survival time, dose: 8.4 mg/kg/injection, schedule: Q07DX Z (sc), vehicle: saline) was 289 % of control; the T/C (endpoint: median survival time, dose: 14.0 mg/kg/injection, schedule: Q01DX001 (sc), vehicle: saline) was 178 % of control; the T/C (endpoint: median survival time, dose: 14.0 mg/kg/injection, schedule: Q01DX Z (sc), vehicle: saline) was 120 % of control; the T/C (endpoint: median survival time, dose: 14.0 mg/kg/injection, schedule: Q07DX Z (sc), vehicle: saline) is 257 % of control. For the same molecule, the T/C runs as follows: under setting [6], 110 % of control; (endpoint: median survival time, dose: 23.0 mg/kg/injection, schedule: Q07DX Z (sc), vehicle: saline) 152 % of control.

For `CCN1C=C/C(=C\C=C/c2cc[n+](CC)c3ccccc23)c2ccccc21`, the T/C (endpoint: median survival time, dose: 0.05 mg/kg/injection, schedule: Q01DX Z (sc), vehicle: methylcellulose (MC)) is 100 % of control; the T/C (endpoint: median survival time, dose: 0.08 mg/kg/injection, schedule: Q01DX Z (sc), vehicle: methylcellulose (MC)) is 100 % of control; the T/C (endpoint: median survival time, dose: 0.14 mg/kg/injection, schedule: Q01DX Z (sc), vehicle: methylcellulose (MC)) was 100 % of control; the T/C (endpoint: median survival time, dose: 0.23 mg/kg/injection, schedule: Q01DX Z (sc), vehicle: methylcellulose (MC)) is 100 % of control; the T/C under setting [1] was 100 % of control; the T/C under setting [2] is 100 % of control. Moreover, the T/C is, setting by setting: under setting [3], 100 % of control; under setting [4], 111 % of control; under setting [5], 105 % of control.

With `CCCCC(C)(N)C(=O)O` (stereo not given), the T/C is 95 % of control (endpoint: median survival time, dose: 14.0 mg/kg/injection, schedule: Q01DX Z (sc), vehicle: water); 100 % of control under setting [7]; 100 % of control (endpoint: median survival time, dose: 39.0 mg/kg/injection, schedule: Q01DX Z (sc), vehicle: water); 100 % of control (endpoint: median survival time, dose: 65.0 mg/kg/injection, schedule: Q01DX Z (sc), vehicle: water); 100 % of control (endpoint: median survival time, dose: 108.0 mg/kg/injection, schedule: Q01DX Z (sc), vehicle: water); 100 % of control (endpoint: median survival time, dose: 180.0 mg/kg/injection, schedule: Q01DX Z (sc), vehicle: water). Further, for the setting “endpoint: median survival time, dose: 300.0 mg/kg/injection, schedule: Q01DX Z (sc), vehicle: water”, the T/C is 100 % of control.

In the case of `O=C(O)CS`, the T/C reads like this: (endpoint: median survival time, dose: 39.0 mg/kg/injection, schedule: Q01DX Z (sc), vehicle: methylcellulose (MC)) 100 % of control; (endpoint: median survival time, dose: 65.0 mg/kg/injection, schedule: Q01DX Z (sc), vehicle: methylcellulose (MC)) 100 % of control; (endpoint: median survival time, dose: 108.0 mg/kg/injection, schedule: Q01DX Z (sc), vehicle: methylcellulose (MC)) 100 % of control.

Take `C=CC(COC(C)=O)N1CC1` (stereo not given): the T/C (endpoint: median survival time, dose: 4.7 mg/kg/injection, schedule: Q01DX Z (sc), vehicle: saline) is 100 % of control; the T/C (endpoint: median survival time, dose: 7.8 mg/kg/injection, schedule: Q01DX Z (sc), vehicle: saline) is 100 % of control; the T/C (endpoint: median survival time, dose: 13.0 mg/kg/injection, schedule: Q01DX Z (sc), vehicle: saline) is 100 % of control; the T/C (endpoint: median survival time, dose: 36.0 mg/kg/injection, schedule: Q01DX Z (sc), vehicle: saline) is 100 % of control; the T/C (endpoint: median survival time, dose: 60.0 mg/kg/injection, schedule: Q01DX Z (sc), vehicle: saline) is 100 % of control.

Turning to `C[n+]1c2cc(N)ccc2cc2ccc(N)cc21`, the T/C under setting [7] is 90 % of control and 100 % of control.

Regarding `O=c1[nH]c(=O)n(C2CC(O)C(CO)O2)cc1F` (stereo not given), the T/C (endpoint: median survival time, dose: 4.0 mg/kg/injection, schedule: Q01DX Z (sc), vehicle: saline) was 100 % of control; the T/C (endpoint: median survival time, dose: 5.0 mg/kg/injection, schedule: Q01DX009 (ip), vehicle: water) is 100 % of control; the T/C (endpoint: median survival time, dose: 5.0 mg/kg/injection, schedule: Q01DX009 (sc), vehicle: water) was 101 % of control; the T/C (endpoint: median survival time, dose: 8.0 mg/kg/injection, schedule: Q01DX Z (sc), vehicle: saline) is 100 % of control; the T/C (endpoint: median survival time, dose: 10.0 mg/kg/injection, schedule: Q01DX009 (ip), vehicle: water) is 97 % of control; the T/C (endpoint: median survival time, dose: 10.0 mg/kg/injection, schedule: Q01DX009 (sc), vehicle: water) was 98 % of control. In addition, the T/C (endpoint: median survival time, dose: 16.0 mg/kg/injection, schedule: Q01DX Z (sc), vehicle: saline) was 111 % of control; the T/C (endpoint: median survival time, dose: 20.0 mg/kg/injection, schedule: Q01DX009 (ip), vehicle: water) was 101 % of control; the T/C (endpoint: median survival time, dose: 20.0 mg/kg/injection, schedule: Q01DX009 (sc), vehicle: water) was 104 % of control; the T/C under setting [6] was 100 % of control; the T/C (endpoint: median survival time, dose: 23.3 mg/kg/injection, schedule: Q01DX Z (sc), vehicle: saline) is 104 % of control; the T/C (endpoint: median survival time, dose: 32.0 mg/kg/injection, schedule: Q01DX Z (sc), vehicle: saline) was 111 % of control. In addition, the T/C is 91 % of control (endpoint: median survival time, dose: 38.9 mg/kg/injection, schedule: Q01DX Z (sc), vehicle: saline); 100 % of control (endpoint: median survival time, dose: 39.0 mg/kg/injection, schedule: Q01DX Z (sc), vehicle: saline); 110 % of control (endpoint: median survival time, dose: 40.0 mg/kg/injection, schedule: Q01DX009 (ip), vehicle: water); 121 % of control (endpoint: median survival time, dose: 40.0 mg/kg/injection, schedule: Q01DX009 (sc), vehicle: water); 100 % of control (endpoint: median survival time, dose: 50.0 mg/kg/injection, schedule: Q01DX009 (sc), vehicle: water); 105 % of control (endpoint: median survival time, dose: 64.0 mg/kg/injection, schedule: Q01DX Z (sc), vehicle: saline). Also, the T/C runs as follows: (endpoint: median survival time, dose: 64.8 mg/kg/injection, schedule: Q01DX Z (sc), vehicle: saline) 100 % of control; (endpoint: median survival time, dose: 65.0 mg/kg/injection, schedule: Q01DX Z (sc), vehicle: saline) 100 % of control and 105 % of control; (endpoint: median survival time, dose: 80.0 mg/kg/injection, schedule: Q01DX009 (ip), vehicle: water) 124 % of control; (endpoint: median survival time, dose: 100.0 mg/kg/injection, schedule: Q01DX009 (sc), vehicle: water) 110 % of control; (endpoint: median survival time, dose: 200.0 mg/kg/injection, schedule: Q01DX009 (sc), vehicle: water) 150 % of control; (endpoint: median survival time, dose: 256.0 mg/kg/injection, schedule: Q01DX Z (sc), vehicle: saline) 161 % of control. Besides, under “endpoint: median survival time, dose: 400.0 mg/kg/injection, schedule: Q01DX009 (sc), vehicle: water”, the T/C is 153 % of control.

Consider `Nc1nc(N)c2nc(CN(CCO)c3ccc(C(=O)NC(CCC(=O)O)C(=O)O)cc3)cnc2n1` (stereo not given), for which the T/C (endpoint: mean survival time, dose: 2.0 mg/kg/injection, schedule: Q01DX009 (ip), vehicle: sodium bicarbonate) was 160 % of control; the T/C (endpoint: mean survival time, dose: 4.0 mg/kg/injection, schedule: Q01DX009 (ip), vehicle: sodium bicarbonate) was 160 % of control; the T/C (endpoint: mean survival time, dose: 8.0 mg/kg/injection, schedule: Q01DX009 (ip), vehicle: sodium bicarbonate) is 191 % of control; the T/C (endpoint: mean survival time, dose: 8.0 mg/kg/injection, schedule: Q04DX003 (ip), vehicle: sodium bicarbonate) is 123 % of control; the T/C (endpoint: mean survival time, dose: 16.0 mg/kg/injection, schedule: Q01DX009 (ip), vehicle: sodium bicarbonate) was 154 % of control.
